# In patent US11788061B2, “Method for producing mesenchymal stem cells that inhibit proliferation of cancer cells” (priority 2016, dated 2023):
# Experiments:
# Assay type in all cases: cell-based, human
# [1] = tested on: Vit.C-MSCs; assay: Evaluation of toxicity of aspirin on Vit.C-MSCs (cck-8); conditions: aspirin concentration of 5 mM or less, 24 hours, cck-8 absorbance at 450 nm
# Method: The Vit.C-MSCs cultured in a medium containing vitamin C of Example 1 were seeded on a 96-well cell culture plate at a concentration of 1×10^4 cells/plate, and then incubated overnight for cell adherence and stabilization. Then, the cells were cultured in a fresh RKCM-N medium, that is, keratinocyte-SFM containing 5% FBS, 2 mM NAC, 0.2 mM ascorbic acid, 0.09 mM calcium, 5 ng/ml rEGF, 5 μg/ml insulin and 74 ng/ml hydrocortisone, supplemented with aspirin in various concentrations of 0.005 mM, 0.001 mM, 0.05 mM, 0.1 mM, 0.5 mM, 1 mM, 5 mM and 10 mM, for 24 hours. A cck-8 (cell counting Kit-8, Dojindo) solution (10 μl/100 μl) was added to each well and reacted for 2 hours, and the absorbance at 450 nm was measured using a plate reader (Lonza).
# [2] = tested on: Vit.C-MSCs; assay: Characteristics of Vit.C-MSCs cultured in aspirin-containing medium (microscope, Luna automated cell counter); conditions: aspirin concentration of 1 mM or less, 24 hours
# Method: The Vit.C-MSCs cultured in a medium containing vitamin C of Example 1 were incubated for 2 days for adherence and stabilization. Then, the Vit.C-MSCs were cultured in fresh RKCM-N medium supplemented with concentrations of 0.1 mM, 0.5 mM, 1 mM and 10 mM of aspirin for 24 hours. The cell morphologies of Vit.C-MSCs by aspirin were monitored with an […] (100× magnification, Leica DMIL) (FIG. 2), and the proliferation rate, viability and cell size were analyzed using a Luna automated cell counter (Logoy) (FIG. 3).
# [3] = tested on: CD marker expression on the stem cell surface; assay: Surface CD marker expression by FACS, overall statement; conditions: 0.1 mM, 0.5 mM and 1 mM of aspirin, 24 hours
# Method: The Vit.C-MSCs cultured in a medium containing vitamin C were cultured for 2 days for adherence and stabilization, and were cultured in fresh RKCM-N media supplemented with aspirin at concentrations of 0.1 mM, 0.5 mM and 1 mM for 24 hours. The CD marker expression on the stem cell surface in the following Table 2 was compared between two types of MSCs, that is, Vit.C-MSCs and ASP-Vit.C-MSCs cultured in aspirin using FACS.
compound,measurement,setting,value
CC(=O)Oc1ccccc1C(=O)O [aspirin],cytotoxicity of Vit.C-MSCs,[1],almost no cytotoxicity
same,cell size of stem cells,[2],did not affect
same,morphology of stem cells,[2],did not affect
same,proliferation rate of stem cells,[2],did not affect
same,viability of stem cells,[2],did not affect
same,CD marker expression on the stem cell surface,[3],not changed
